{
  "source": "patent US20260102377A1",
  "about": "“COMPOSITIONS AND METHODS FOR TREATING MYASTHENIA GRAVIS” (priority 2022, published 2026)",
  "key": {"[1]": {"system": "soleus, EDL and diaphragm muscles from EAMG rats", "assay": "Force measurement in isolated intact nerve-muscle preparations", "parameters": "species or system rat", "details": "for Relative force area after addition of NMD670 (Initial area = 100): NMD670 between 20 and 40 μM", "source_text": "To allow for measurements of electrophysiological properties at the cellular level and for measurements of force, it was necessary to isolate nerve-muscle preparations from the rats. To this end, animals were sacrificed, and muscles were dissected out with 1 to 3 cm of intact nerve. The nerve-muscle preparations were then transferred to the organ baths used for the particular experiments (see below) and perfused with Normal Krebs-Ringer (NKR) solution, consisting of (in mM); 122 NaCl, 25 NaHCO3, 2.8 KCl, 1.2 KH2PO4, 1.2 MgSO4 1.27 CaCl2 and 5 D-glucose. This NKR solution was continuously gassed with a mixture of 95% oxygen and 5% CO2, to maintain a pH of approx. 7.4. In some experiments methyl-sulphate was used to replace Cl^− in the solution. All chemicals used were of analytical grade.\nTo determine whether enhanced neuromuscular transmission with CIC-1 inhibition could restore force in whole muscles from EAMG animals, experiments were conducted with soleus, extensor digitorum longus, and diaphragm muscles from EAMG rats. All muscles were mounted on force transducers (FORT 250, WPI instruments DE) in pre-warmed chambers (30° C.) containing 20 mL NKR each. The acquisition program Signal (version 6.4, Cambridge Electronics Design Ltd, Cambridge, UK) was used to control stimulation, delivered by an isolated stimulator (isostim 01D NPI electronics, DE) and for recording data via an analogue-digital converter (Micro 1401 Cambridge Electronics Design Ltd, Cambridge, UK). After equilibration in chambers, muscles were stretched to their optimal length and stimulated at a range of frequencies. For the duration of the experiment muscles were stimulated both directly and via the nerve at 12 V. This was accomplished by changing the stimulation pulse duration between 0.02 ms for nerve stimulation and 0.2 ms for direct stimulation of the muscle fibres. Muscles were stimulated every 10 min at 60 Hz for 1 second, either directly or via the nerve. To test for effect of NMD670 on force generation, different concentrations of NMD670 were added directly to the experimental chamber of the individual muscles."}, "EAMG rats [2]": {"system": "EAMG rats", "assay": "14-day dosing in EAMG animals: bodyweight and study completion", "assay_type": "in vivo, rat", "method": "To induce EAMG, 250 μL of emulsion of Complete Freund's Adjuvant, consisting of heat-inactivated Mycobacterium tuberculosis H37Ra in non-metabolizable oils, together with Phosphate-Buffered Saline (PBS) and 80 μg of the extracellular α-domain peptide fragment of the human nicotinic acetylcholine receptor (antigen) was injected subcutaneously in seven-week-old, anaesthetized Lewis rats. The disease-inducing antigen was supplied by the Hellenic Pasteur institute3. The emulsion was deposited at the tail base, left hindleg, and right foreleg. After injection, animals were allowed to recover and returned to their home cage maintained in ventilated racks under controlled temperature (20 to 22° C.) and humidity (˜55%) control, under a 12-h light/12-h dark cycle with food and water provided ad libitum. The animals had pathogen free status and the housing and changing system was designed to assure that the pathogen free status was preserved during the study. The EAMG rats were observed, weighed, and scored for MG symptoms weekly until symptoms of MG developed, whereafter animals were observed daily.\nSixteen (16) rats with an EAMG clinical score of 2 were allocated to the study and stratified to one of the two treatment groups (vehicle vs NMD670, 8 rats per group). […] Grip strength and Rotarod performance were measured prior to treatment (day 0) and on days 1, 4, 7, 9, 11 and 14 during treatment. […]"}, "EAMG rats [3]": {"system": "EAMG rats", "assay": "Force and EMG in sedated EAMG animals (triceps surae, sciatic nerve stimulation)", "assay_type": "in vivo, rat"}, "patients with MG": {"system": "patients with MG", "assay": "Phase 1 FIH study: safety in patients with MG", "assay_type": "in vivo, human", "method": "12 patients were enrolled and completed the study. For each subject, the study consisted of three study periods during which subjects received either a single dose of NMD670 400 mg, NMD670 1200 mg, or placebo with a 7-day washout period between visits. On these study visits, subjects were asked to refrain from their regular dose of pyridostigmine (if applicable) from 14 h before dosing until after the last pharmacodynamic measurement on Day 1 (see Table 13: Visit and Assessment Schedule). The cross-over design allowed intra-individual comparison of drug effects versus placebo (see FIG. 16). A balanced design was applied to control for first-order carry-over effects.\nPart C was a double-blinded, placebo-controlled, three-way cross-over comparison of two single oral doses of NMD670 in men and women with stable symptomatic myasthenia gravis. 12 patients were enrolled. For each subject, the study consisted of three study periods during which subjects received either a single dose of NMD670 or placebo. On these study visits, subjects were asked to refrain from their regular dose of pyridostigmine (if applicable) for 14 hours before dosing. Single doses were administered in randomized order (400 mg free acid, 1200 mg free acid, or placebo p.o.), with a 7-day washout period between visits (FIG. 16). NMD670/placebo was administered with 240 ml of still water."}},
  "note": "Entries after “also recorded” stand apart in the source; their conditions may differ.",
  "data": [
    {"compound": "C[C@H](Oc1ccc(Br)cc1-c1ccon1)C(=O)O", "note": "[NMD670, (2S)-2-[4-bromo-2-(1,2-oxazol-3-yl)phenoxy]propanoic acid]", "values": [
      {"measurement": "Force from isolated soleus muscle", "setting": "[1]; 20 μM NMD670, nerve-stimulated at 60 Hz, EAMG rats", "result": "could be restored"},
      {"measurement": "Relative force area after addition of NMD670 (Initial area = 100)", "setting": "[1]; Diaphragm (12) from EAMG rats", "result": "120.2 ± 5.04"},
      {"measurement": "Relative force area after addition of NMD670 (Initial area = 100)", "setting": "[1]; EDL (14) from EAMG rats", "result": "235.1 ± 25.0"},
      {"measurement": "Force generation in isolated soleus, EDL and diaphragm muscles compared with muscles from healthy animals", "setting": "[1]; NMD670 20 μM or between 20 and 40 μM, EAMG animals", "result": "restored force generation"},
      {"measurement": "Relative force area after addition of NMD670 (Initial area = 100)", "setting": "[1]; Soleus (14) from EAMG rats", "result": "199 ± 17.1"},
      {"measurement": "Loss of body weight versus vehicle", "setting": "EAMG rats [2]; 14-day chronic dosing, EAMG animals, 20 mg/kg twice daily (b36 prints 40 mg/kg BID)", "result": "attenuation in loss of body weight"},
      {"measurement": "Treated rats that completed the study", "setting": "EAMG rats [2]; 14-day study, early termination when body weight below 80% of maximum, vehicle 3 out of 8", "result": "6 of the 8"},
      {"measurement": "Nerve-stimulated force and EMG amplitude in triceps surae", "setting": "EAMG rats [3]; EAMG rat score 2, 40 mg per kg, 20 minutes after administration, 80 Hz for 1 second", "result": "rapid restoration of force and EMG amplitude"},
      {"measurement": "Restoration of muscle force / EMG", "setting": "EAMG rats [3]; EAMG rats, single per oral doses from 2 to 120 mg/kg", "result": "rapid and dose-dependent restoration of muscle force; also recorded: rapid and dose-dependent restoration of both EMG and force"},
      {"measurement": "Treatment-related adverse effects in MG patients", "setting": "patients with MG; 1200 mg doses", "result": "no treatment-related adverse effects"},
      {"measurement": "Myotonia in patients with MG", "setting": "patients with MG; single doses up to 1200 mg", "result": "not observed"}
    ]}
  ]
}
